From patent US4228304A, “Novel cyclohexanecarboxylic acid and its derivatives” (Hisamitsu Pharmaceutical Co. Inc., priority 1977, dated 1980) come the findings set out here.

Data set [1] can be described thus: Determination of surface tension. Format: physicochemical. As to conditions: 0.25% solution of the salt, Ring method, 25° C. The protocol: (§1) (6) Emulsification test and determination of surface tention
As the structure of the compounds of the present invention is comparatively, similar to Amisoft, HS-11, a sort of Amisoft, which is mixture of 70% of N-stearoyl-L-glutamic acid monosodium salt and 30% of N-palmitoyl-L-glutamic acid monosodium salt was selected for the tests. The surface activity and the surface tension of the said HS-11 and the compounds of the present invention were measured and determined respectively, and those comparative results were shown in Table VII.
(2) Determination of surface tension
The 0.25% solution of the salt of each compound was determined by Ring method at 25° C.

The nature of the next data set: Emulsification test. As to conditions: 10 ml of 0.25% solution of the salt + 10 ml toluene, 40° C., 15 minutes standing. Format: physicochemical. The procedure: as §1
They were emulsified in the test tube by turning it upside down repeatedly for 30 times at 40° C. and were allowed to stand for 15 minutes. After the standing the separated volume of aqueous layer was measured.

For data set [2], the system named is lung fragment of guinea pig. As to the kind of experiment: Mediator (histamine) release on lung fragment of guinea pig. Format: cell-based, guinea pig (Hartley strain). As to conditions: 10^-4 g/ml. The procedure:
(4) Mediator release on lung fragment of guinea pig.
A group of Hartley strain male guinea pigs (body weight 250-300 g) were administered intraperitoneally anti-BPO-BGG IgE serum. The animals were sacrificed by decapitation, and those sensitized lungs were isolated for use. […] Following 10 minute incubation, the amount of the released histamine were determined by bioassay.

Data set [3] has as its system passive cutaneous anaphylaxis in rat. As to the kind of experiment: Homologeous passive cutaneous anaphylaxis in rat. Format: in vivo, rat (Wistar strain). As to conditions: orally, exuded pigment vs control. The protocol: (2) Homologeous passive cutaneous anaphylaxis in rat Each test compound suspended in 0.5% tragacanth gum-distilled water was administered orally to a group of five male Wistar strain rats (body weight 150-200 g). After one hour 0.1 ml of 5% anti-Dinitrophinol conpled Ascaris rat IgE serum-physiological sodium chloride solution was injected intradermally to dorsum of the rat. […] The animals were sacrificed by decapitation 30 minutes after the injection. Thereafter the skin of the animals were removed and the amount of the pigment exuded into the inflamed skin was determined. The percent inhibitions were calculated by the ratio of the amounts of exuded pigments to the control.

Another data set can be described thus: Acute toxicity (rat). As to conditions: in vivo, po. The procedure: Each test compound suspended in 0.5% tragacanth gum-saline was administered orally, subcutaneously or intraperitoneally to animals ddY strain mouse and Wistar strain rats. The 50% lethal dose and the 95% confidence limit were calculated by Litchfield-Wilcoxon's method from the death of animals in 3 weeks following administration.

Data set [4] relates to Picryl Chloride induced contact dermatitis. In words: Picryl Chloride induced contact dermatitis. Format: in vivo, mouse (ddY strain). As to conditions: Mus musculus, po; for inhibition in vivo at 100 mg/kg: orally, ear swelling 24 hours after second challenge. The protocol:
(3) Picryl Chloride induced contact dermatitis
At first 0.1 ml of 7% picryl chloride-ethanol solution was applied to skin of the depilated abdomens (area 2.5×15 mm) of ddY-strain male mice (body weight 20-22 g). After one week each 0.02 ml of 1% picryl chloride-olive oil solution was applied topically to the ears of the mouse. […] After three days 0.1 ml of 7% picryl chloride-ethanol solution was applied again to the depilated abdomens of the mice. After one week, each 0.02 ml of 1% picryl chloride-olive oil solution per ear were applied topically to the bilateral ears, and at same time, the test compounds were administered orally. Immediately before and 24 hours after the second challenge, the thickness of the ears was measured and the swelling was calculated. The percent inhibitions were calculated by the ratio of the each swelling to the control.

Data set [5] deals with rat adjuvant polyarthritis. As to the kind of experiment: Effect on rat adjuvant polyarthritis. Format: in vivo, rat (Sprague Dawley strain). As to conditions: oral daily: Compound No. 1 200 mg/kg, Ibuprofen 50 mg/kg, Prednisolone 0.5 mg/kg. The procedure: (5) Effect on rat adjuvant polyarthritis
A group of eight to ten male Sprague Dawley strain rats (body weight 240-280 g) were used. 0.1 ml of Complete Freuind's adjuvant (CFA, Mycobacterium butyricum, 100 mg/10 cc) was injected intradermally to the right hind sole.

Where a name gives a salt, the structure may show the parent alone.

For `CC(C)CCC[C@H]1CC[C@@](C)(C(=O)NCC(=O)O)CC1` [Compound No. 2 (potassium salt)], the “Surface tension γ” value in data set [1] amounted to 39.5 dyn/cm. Further, the “Separated volume of aqueous layer” value in “Emulsification test” turned out to be 9.5 mL.

One may read the Inhibition as the percentage by which the read-out fell short of the control. A high value points to a response far below the control. By LD50 is commonly meant the dose at which mortality reaches 50%. In the case of `CC(C)CCC[C@H]1CC[C@@](C)(C(=O)NCC(=O)O)CC1` [Compound No. 2, N-(cis-4-isohexyl-1-methylcyclohexanecarbonyl)-glycine], in data set [2], the “inhibition (released histamine)” value is 73.0%. For the same molecule, the Inhibition in data set [3] (100 mg/kg) turned out to be 46%. The median lethal dose (LD50) at 504 h was around 10300 mg/kg in “Acute toxicity (rat)” (female rat) and around 11000 mg/kg in “Acute toxicity (rat)” (male rat). In data set [4], the inhibition in vivo at 100 mg/kg stood at 41%.

For `CCC(NC(=O)[C@]1(C)CC[C@H](CCCC(C)C)CC1)C(=O)O` (stereo partly drawn) [Compound No. 12 (potassium salt)], the “Surface tension γ” value in data set [1] came to 44.5 dyn/cm. Also, in the data set “Emulsification test”, the “Separated volume of aqueous layer” value turned out to be 7.3 mL.

`CCC(NC(=O)[C@]1(C)CC[C@H](CCCC(C)C)CC1)C(=O)O` (stereo partly drawn) [Compound No. 12] returned an inhibition in vivo at 100 mg/kg in data set [4] of 27%.

For `CC(C)CCC[C@H]1CC[C@@](C)(C(=O)N[C@@H](CCC(=O)O)C(=O)O)CC1` [Compound No. 15 (monosodium salt)], the “Surface tension γ” value in data set [1] was 42.3 dyn/cm. Moreover, the “Separated volume of aqueous layer” value in “Emulsification test” was 9.3 mL.

As to `CSCC[C@H](NC(=O)[C@]1(C)CC[C@H](CCCC(C)C)CC1)C(=O)O` [Compound No. 17 (triethanolamine salt)], in data set [1], the “Surface tension γ” value stood at 42.3 dyn/cm. Moreover, the “Separated volume of aqueous layer” value in the data set “Emulsification test” was found to be 9.5 mL.

Regarding `CSCC[C@H](NC(=O)[C@]1(C)CC[C@H](CCCC(C)C)CC1)C(=O)O` [Compound No. 17], the inhibition in vivo at 100 mg/kg in data set [4] was 50%.

Take `CC(C)CCC[C@H]1CC[C@H](C(=O)NCCCCCC(=O)O)CC1` [Compound No. 42 (sodium salt)]: the “Surface tension γ” value in data set [1] is given as 38.8 dyn/cm. Besides, the “Separated volume of aqueous layer” value in “Emulsification test” was 9.5 mL.

On to `CC1(C)[C@@H](O[C@H]2O[C@H](C(=O)O)[C@@H](O)[C@H](O)[C@H]2O[C@@H]2O[C@H](C(=O)O)[C@@H](O)[C@H](O)[C@H]2O)CC[C@]2(C)[C@H]3C(=O)C=C4[C@@H]5C[C@@](C)(C(=O)O)CC[C@]5(C)CC[C@@]4(C)[C@]3(C)CC[C@@H]12` [Glycyrrhizin, reference compound], for which the “inhibition (released histamine)” value in data set [2] is reported as 8.0%. In addition, the Inhibition in data set [3] (100 mg/kg) worked out at 22%.

On to `CC(C)Cc1ccc(C(C)C(=O)O)cc1` (stereo not drawn) [Ibuprofen], for which the “Swelling percent of left hind paw (non-treatment of CFA)” value in data set [5] (day 0) is reported as -1.7±1.3%; in data set [5] (day 1) it was -2.4±1.0%; in data set [5] (day 4), -2.3±1.5%; in data set [5] (day 7) it was 1.5±1.8%; in data set [5] (day 10), 7.4±1.8%; in data set [5] (day 14), 12.5±1.5%. In addition, the “Swelling percent of left hind paw (non-treatment of CFA)” value amounted to 8.5±1.5% in data set [5] (day 17) and 8.5±2.0% in data set [5] (day 21). Also, the “Swelling percent of right hind paw (treatment of CFA)” value (from here on “Swelling percent of right hind paw”) in data set [5] (day 0) is on record as 118.6± 5.7%; in data set [5] (day 1), 98.1± 6.1%; in data set [5] (day 4), 204.7±11.6%; in data set [5] (day 7), 181.7±14.8%; in data set [5] (day 21) it was 138.5±12.6%.

As to `C[C@]12C=CC(=O)C=C1CC[C@@H]1[C@@H]2[C@@H](O)C[C@@]2(C)[C@H]1CC[C@]2(O)C(=O)CO` [Prednisolone], the “inhibition (released histamine)” value in data set [2] is recorded as 4.0%. The molecule also showed an Inhibition in data set [3] (5 mg/kg) of 42%. For the same molecule, the inhibition in vivo at 5 mg/kg in data set [4] (24 h, read-out: Inhibition) turned out to be 32%. For the same molecule, the “Swelling percent of left hind paw (non-treatment of CFA)” value in data set [5] (day 0) is reported as -1.1±1.0%; in data set [5] (day 1) it was -1.0±1.0%; in data set [5] (day 4), -1.7±1.1%; in data set [5] (day 7), 5.7±1.9%; in data set [5] (day 10) it was 4.5±2.9%; in data set [5] (day 14), 12.5±2.4%. Moreover, the “Swelling percent of left hind paw (non-treatment of CFA)” value worked out at 9.8±1.4% in data set [5] (day 17) and 7.1±1.5% in data set [5] (day 21). In addition, the “Swelling percent of right hind paw” value in data set [5] (day 0) is reported as 118.4± 6.0%; in data set [5] (day 1) it was 97.3± 6.5%; in data set [5] (day 4) it was 232.7±17.8%; in data set [5] (day 7), 200.3±22.5%; in data set [5] (day 10), 167.2±19.0%; in data set [5] (day 14) it was 175.0±18.6%. Moreover, the figures for the “Swelling percent of right hind paw” value in data set [5] (day 17) and in data set [5] (day 21) were 174.2±18.6% and 173.0±23.7%, respectively.

Molecule `CC(C)CCC[C@H]1CC[C@@](C)(C(=O)NCCCCCC(=O)O)CC1` [compound 3, N-(cis-4-isohexyl-1-methylcyclohexanecarbonyl)-ε-aminocaproic acid] gave an inhibition in vivo at 100 mg/kg in data set [4] of 45%.

`CC(C)CCC[C@H]1CC[C@@](C)(C(=O)N[C@@H](C)C(=O)O)CC1` [compound 5]: in data set [4], the inhibition in vivo at 100 mg/kg came to 32%.

In data set [4], `CC(C)CCC[C@H]1CC[C@@](C)(C(=O)NCCC(=O)O)CC1` [compound 6, N-(cis-4-isohexyl-1-methylcyclohexanecarbonyl)-β-alanine] registered an inhibition in vivo at 100 mg/kg of 10%.

On to `CC[C@H](C)[C@H](NC(=O)[C@]1(C)CC[C@H](CCCC(C)C)CC1)C(=O)O` [compound 8], for which, in data set [4], the inhibition in vivo at 100 mg/kg is 41%.

`CCCC(NC(=O)[C@]1(C)CC[C@H](CCCC(C)C)CC1)C(=O)O` (stereo partly drawn) [compound 9]: the inhibition in vivo at 100 mg/kg in data set [4] amounted to 47%.

In turn, `CC(C)CCC[C@H]1CC[C@@](C)(C(=O)N[C@H](C(=O)O)C(C)C)CC1` [compound 10] displayed an inhibition in vivo at 100 mg/kg in data set [4] of 9%.

The molecule `CCCCC(NC(=O)[C@]1(C)CC[C@H](CCCC(C)C)CC1)C(=O)O` (stereo partly drawn) [compound 11] registered an inhibition in vivo at 100 mg/kg in data set [4] of 37%.

In the case of `CC(C)CCC[C@H]1CC[C@@](C)(C(=O)NCCCC(=O)O)CC1` [compound 13], the inhibition in vivo at 100 mg/kg in data set [4] is 40%.

In the case of `CC(C)CCC[C@H]1CC[C@@](C)(C(=O)N[C@@H](CCC(N)=O)C(=O)O)CC1` [compound 14], the inhibition in vivo at 100 mg/kg in data set [4] worked out at 7%.

Consider `CC(C)CCC[C@H]1CC[C@@](C)(C(=O)N[C@@H](CS)C(=O)O)CC1` [compound 18], for which the inhibition in vivo at 100 mg/kg in data set [4] amounted to 27%.

For `CC(C)CCC[C@H]1CC[C@](C)(C(=O)O)CC1` [compound 20, trans-4-isohexyl-1-methylcyclohexanecarboxylic acid], in data set [4], the inhibition in vivo at 100 mg/kg worked out at 44%.

In data set [4], `CC(C)CCC[C@H]1CC[C@](C)(C(=O)NCC(=O)O)CC1` [compound 21, N-(trans-4-isohexyl-1-methylcyclohexanecarbonyl)-glycine] showed an inhibition in vivo at 100 mg/kg of 53%.
